The target in one test is T1, XIAP BIR3 (Homo sapiens, UniProt P98170).
T1 construct: His-BIR3 (241-356, XIAP)
Briefly: XIAP-BIR3/SMAC Homogeneous Time Resolved Fluorescence (HTRF) Assay. The test is classed as binding. Summed up: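 Competition HTRF between XIAP-BIR3 and SMAC; reaction 60 min at room temperature, then anti-6×His-terbium Fab detection for a further 30 min.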
On the technique in general: Time-resolved FRET reads energy transfer from a long-lived donor to a nearby acceptor.

The target of the next test is T2, XIAP BIR2-3 (Homo sapiens, UniProt P98170, C202A/C213G).
T2 construct: His-BIR2-3 (125-356, C202A/C213G, XIAP)
Briefly: XIAP-BIR2-3 dimeric SMAC Peptide Homogeneous Time Resolved Fluorescence (HTRF) Assay. In kind it is binding. As to the method: B. […] Assays were performed in black, flat-bottom, 384-well plates. […] Compounds were dissolved at 3 mM in dimethylsulfoxide (DMSO) and evaluated at eleven serially diluted concentrations. IC50 and Ki values were derived by non-linear regression analysis.

The mark [1] stands for this setting: 1 nM N-His-BIR3 (241-356, XIAP), 5 nM fluorescein labeled SMAC peptide, HTRF signal, read-out: XIAP BIR3 IC50.
The mark [2] stands for this setting: 0.5 nM N-His-BIR2-3 (125-356, C202A/C213G, XIAP), 20 nM fluorescein labeled dimeric SMAC peptide, HTRF signal, read-out: XIAP BIR2-3 IC50.

Counter-ions that a name gives are not always drawn. Like-named read-outs stand apart in the source and are kept apart here.

T2 sequence (P98170 125-356 C202A/C213G): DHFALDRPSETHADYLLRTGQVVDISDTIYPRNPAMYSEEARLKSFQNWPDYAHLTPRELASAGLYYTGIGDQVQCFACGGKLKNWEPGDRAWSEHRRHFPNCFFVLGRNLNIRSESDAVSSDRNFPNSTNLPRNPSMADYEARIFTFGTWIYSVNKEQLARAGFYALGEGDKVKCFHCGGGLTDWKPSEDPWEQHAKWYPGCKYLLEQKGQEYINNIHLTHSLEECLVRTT
T1 sequence (P98170 241-356): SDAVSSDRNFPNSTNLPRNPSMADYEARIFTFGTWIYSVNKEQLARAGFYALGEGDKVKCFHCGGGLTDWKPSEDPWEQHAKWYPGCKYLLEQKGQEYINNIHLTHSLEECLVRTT

Consider `CN[C@@H](C)C(=O)N[C@H](C(=O)N1Cc2cc([C@H]3C[C@@H](C(=O)N[C@@H](Cc4ccc5ccccc5c4)C(=O)OC)N(C(=O)[C@@H](NC(=O)[C@H](C)NC)C(C)(C)C)C3)ccc2C[C@H]1C(=O)N[C@@H](Cc1ccc2ccccc2c1)C(=O)OC)C(C)(C)C` [Example 82, (S)-Methyl 2-((2S,4R)-1-((S)-3,3-dimethyl-2-((S)-2-(methylamino)propanamido)butanoyl)-4-((S)-2-((S)-3,3-dimethyl-2-((S)-2-(methylamino)propanamido)butanoyl)-3-(((S)-1-methoxy-3-(naphthalen-2-yl)-1-oxopropan-2-yl)carbamoyl)-1,2,3,4-tetrahydroisoquinolin-7-yl)pyrrolidine-2-carboxamido)-3-(naphthalen-2-yl)propanoate], for which the IC50 (commonly the concentration at which inhibition is half-maximal) amounted to 111 nM at XIAP BIR3 (setting [1]) and 68.2 nM at XIAP BIR2-3 (setting [2]).

`CN[C@@H](C)C(=O)N[C@H](C(=O)N1Cc2cc([C@H]3C[C@@H](C(=O)N[C@@H](Cc4ccc5ccccc5c4)C(=O)O)N(C(=O)[C@@H](NC(=O)[C@H](C)NC)C(C)(C)C)C3)ccc2C[C@H]1C(=O)N[C@@H](Cc1ccc2ccccc2c1)C(=O)O)C(C)(C)C` [Example 83, (S)-2-((S)-7-((3R,5S)-5-(((S)-1-Carboxy-2-(naphthalen-2-yl)ethyl)carbamoyl)-1-((S)-3,3-dimethyl-2-((S)-2-(methylamino)propanamido)butanoyl)pyrrolidin-3-yl)-2-((S)-3,3-dimethyl-2-((S)-2-(methylamino)propanamido)butanoyl)-1,2,3,4-tetrahydroisoquinoline-3-carboxamido)-3-(naphthalen-2-yl)propanoic acid]: the IC50 on XIAP BIR3 (setting [1]) was found to be 19.2 nM; at XIAP BIR2-3 (setting [2]) it was 26.2 nM.

With `CN[C@@H](C)C(=O)N[C@H](C(=O)N1Cc2cc([C@H]3C[C@@H](C(=O)N[C@H](COC)Cc4ccccc4)N(C(=O)[C@@H](NC(=O)[C@H](C)NC)C(C)(C)C)C3)ccc2C[C@H]1C(=O)N[C@H](COC)Cc1ccccc1)C(C)(C)C` [Example 84, (S)-2-((S)-3,3-Dimethyl-2-((S)-2-(methylamino)propanamido)butanoyl)-7-((3R,5S)-1-((S)-3,3-dimethyl-2-((S)-2-(methylamino)propanamido)butanoyl)-5-(((S)-1-methoxy-3-phenylpropan-2-yl)carbamoyl)pyrrolidin-3-yl)-N-((S)-1-methoxy-3-phenylpropan-2-yl)-1,2,3,4-tetrahydroisoquinoline-3-carboxamide], the figures for the IC50 on XIAP BIR3 (setting [1]) and at XIAP BIR2-3 (setting [2]) were 31.4 nM and 8.1 nM, respectively.

Regarding `CN[C@@H](C)C(=O)N[C@H](C(=O)N1Cc2cc([C@H]3C[C@@H](C(=O)N[C@@H](Cc4ccccc4)C(=O)OC)N(C(=O)[C@@H](NC(=O)[C@H](C)NC)C(C)(C)C)C3)ccc2C[C@H]1C(=O)N[C@@H](Cc1ccccc1)C(=O)OC)C(C)(C)C` [Example 85, (S)-Methyl 2-((2S,4R)-1-((S)-3,3-dimethyl-2-((S)-2-(methylamino)propanamido)butanoyl)-4-((S)-2-((S)-3,3-dimethyl-2-((S)-2-(methylamino)propanamido)butanoyl)-3-(((S)-1-methoxy-1-oxo-3-phenylpropan-2-yl)carbamoyl)-1,2,3,4-tetrahydroisoquinolin-7-yl)pyrrolidine-2-carboxamido)-3-phenylpropanoate], the values for the 50% inhibitory concentration (IC50) at XIAP BIR3 and against XIAP BIR2-3 were 14.8 nM and 6.2 nM, respectively.

As to `CN[C@@H](C)C(=O)N[C@H](C(=O)N1Cc2cc([C@H]3C[C@@H](C(=O)N[C@@H](Cc4ccccc4)C(=O)O)N(C(=O)[C@@H](NC(=O)[C@H](C)NC)C(C)(C)C)C3)ccc2C[C@H]1C(=O)N[C@@H](Cc1ccccc1)C(=O)O)C(C)(C)C` [Example 86, (S)-2-((S)-7-((3R,5S)-5-(((S)-1-Carboxy-2-phenylethyl)carbamoyl)-1-((S)-3,3-dimethyl-2-((S)-2-(methylamino)propanamido)butanoyl)pyrrolidin-3-yl)-2-((S)-3,3-dimethyl-2-((S)-2-(methylamino)propanamido)butanoyl)-1,2,3,4-tetrahydroisoquinoline-3-carboxamido)-3-phenylpropanoic acid], the half-maximal inhibitory concentration (IC50) was 5 nM on XIAP BIR3 (setting [1]) and 2.7 nM at XIAP BIR2-3 (setting [2]).

Regarding `CN[C@@H](C)C(=O)N[C@H](C(=O)N1CC(c2ccc3c(c2)CN(C(=O)[C@@H](NC(=O)[C@H](C)NC)C24CC5CC(CC(C5)C2)C4)[C@H](C(=O)NC2CCCc4ccccc42)C3)C[C@H]1C(=O)NC1CCCc2ccccc21)C(C)(C)C` (stereo partly drawn) [Example 87, (S)-2-((S)-2-((3S,5S,7S)-Adamantan-1-yl)-2-((S)-2-(methylamino)propanamido)acetyl)-7-((3R,5S)-1-((S)-3,3-dimethyl-2-((S)-2-(methylamino)propanamido)butanoyl)-5-(((R)-1,2,3,4-tetrahydronaphthalen-1-yl)carbamoyl)pyrrolidin-3-yl)-N—((R)-1,2,3,4-tetrahydronaphthalen-1-yl)-1,2,3,4-tetrahydroisoquinoline-3-carboxamide, 2 TFA], the results for the IC50 at XIAP BIR3 (setting [1]) and at XIAP BIR2-3 (setting [2]) were 7.3 nM and 5.9 nM, respectively.

In the case of `CN[C@@H](C)C(=O)N[C@H](C(=O)N1C[C@@H](NC(=O)c2ccc3c(c2)CN(C(=O)[C@@H](NC(=O)[C@H](C)NC)C24CC5CC(CC(O)(C5)C2)C4)[C@H](C(=O)NC2CCCc4ccccc42)C3)C[C@H]1C(=O)NC1CCCc2ccccc21)C(C)(C)C` (stereo partly drawn) [Example 88, (S)-N^7-((3S,5S)-1-((S)-3,3-dimethyl-2-((S)-2-(methylamino)propanamido)butanoyl)-5-(((R)-1,2,3,4-tetrahydronaphthalen-1-yl)carbamoyl)pyrrolidin-3-yl)-2-((S)-2-((1r,3R,5R,7S)-3-hydroxyadamantan-1-yl)-2-((S)-2-(methylamino)propanamido)acetyl)-N^3-((R)-1,2,3,4-tetrahydronaphthalen-1-yl)-1,2,3,4-tetrahydroisoquinoline-3,7-dicarboxamide], the concentration for half-maximal inhibition (IC50) on XIAP BIR3 (setting [1]) worked out at 9 nM; at XIAP BIR2-3 (setting [2]) it was 2.6 nM.

As for `CN[C@@H](C)C(=O)N[C@H](C(=O)N1Cc2cc(C(=O)N[C@H]3C[C@@H](C(=O)N[C@@H]4CCCc5ccccc54)N(C(=O)[C@@H](NC(=O)[C@H](C)NC)C(C)(C)C)C3)ccc2C[C@H]1C(=O)N[C@@H]1CCCc2ccccc21)C(c1ccccc1)c1ccccc1` [Example 89, (S)-N^7-((3S,5S)-1-((S)-3,3-dimethyl-2-((S)-2-(methylamino)propanamido)butanoyl)-5-(((R)-1,2,3,4-tetrahydronaphthalen-1-yl)carbamoyl)pyrrolidin-3-yl)-2-((S)-2-((S)-2-(methylamino)propanamido)-3,3-diphenylpropanoyl)-N^3-((R)-1,2,3,4-tetrahydronaphthalen-1-yl)-1,2,3,4-tetrahydroisoquinoline-3,7-dicarboxamide], the IC50 at XIAP BIR3 (setting [1]) is 37.8 nM; on XIAP BIR2-3 (setting [2]), 360 nM.

On to “(S)-2-((S)-3-Cyclopentyl-2-((S)-2-(methylamino) propanamido)propanoyl)-N^7-((3S,5S)-1-((S)-3,3-dimethyl-2- ((S)-2-(methylamino)propanamido)butanoyl)-5-(((R)-1,2,3,4- tetrahydronaphthalen-1-yl)carbamoyl)pyrrolidin-3-yl)-N^3- ((R)-1,2,3,4-tetrahydronaphthalen-1-yl)-1,2,3,4- tetrahydroisoquinoline-3,7-dicarboxamide [Example 6]”, for which the 50% inhibitory concentration (IC50) on XIAP BIR3 (setting [1]) was 14 nM; on XIAP BIR2-3 (setting [2]), 2 nM.
